{
  "source": "PubChem BioAssay AID2060898",
  "about": "(Molecular Pharmacology Branch, DTP, NCI, 2025)",
  "tested_on": "616215-338-R-J1-PDC complex spheroid viability",
  "assay": "Anticancer human tumor 616215-338-R-J1-PDC patient-derived colon adenocarcinoma cell line growth inhibition [RAS]",
  "conditions": "for IC50: curve of first compound; for viability, T/C: stronger effect = lower value",
  "outline": "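Multi-cell-type spheroids: tumor cells plus HUVEC endothelial cells and mesenchymal stem cells. RAS-pathway inhibitors were combined with targeted agents, each dosed in half-log steps down from clinical Cmax, or from 10 microM when Cmax was unknown.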",
  "data": [
    {"compound": "CCc1c2c(nc3ccc(O)cc13)-c1cc3c(c(=O)n1C2)COC(=O)[C@]3(O)CC", "note": "+ C#Cc1c(F)ccc2cc(O)cc(-c3ncc4c(N5CC6CCC(C5)N6)nc(OCC56CCCN5CC(F)C6)nc4c3F)c12;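 further: spheroids exposed to agents for seven days before viability readout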;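 on viability, T/C: 100% = DMSO vehicle control viability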", "values": [
      {"measurement": "IC50", "setting": "second compound 0.0316 µM", "result": 10.2, "unit": "nM"},
      {"measurement": "IC50", "setting": "second compound 0.1 µM", "result": 10.7, "unit": "nM"},
      {"measurement": "IC50", "setting": "second compound 0.316 µM", "result": 16.8, "unit": "nM"},
      {"measurement": "IC50", "setting": "second compound 1 µM", "result": 7.72, "unit": "nM"},
      {"measurement": "IC50", "setting": "second compound 3.16 µM", "result": 4.71, "unit": "nM"},
      {"measurement": "IC50", "setting": "second compound 10 µM", "result": "< 0.949", "unit": "nM"},
      {"measurement": "viability, T/C", "setting": "second compound 0.0316 µM, first compound 0.000949 µM", "result": 108, "unit": "%"},
      {"measurement": "viability, T/C", "setting": "second compound 0.0316 µM, first compound 0.003 µM", "result": 108, "unit": "%"},
      {"measurement": "viability, T/C", "setting": "second compound 0.0316 µM, first compound 0.00949 µM", "result": 50.2, "unit": "%"},
      {"measurement": "viability, T/C", "setting": "second compound 0.0316 µM, first compound 0.03 µM", "result": 35, "unit": "%"},
      {"measurement": "viability, T/C", "setting": "second compound 0.0316 µM, first compound 0.0949 µM", "result": 21.1, "unit": "%"},
      {"measurement": "viability, T/C", "setting": "second compound 0.0316 µM, first compound 0.3 µM", "result": 16.5, "unit": "%"},
      {"measurement": "viability, T/C", "setting": "second compound 0.1 µM, first compound 0.000949 µM", "result": 116, "unit": "%"},
      {"measurement": "viability, T/C", "setting": "second compound 0.1 µM, first compound 0.003 µM", "result": 103, "unit": "%"},
      {"measurement": "viability, T/C", "setting": "second compound 0.1 µM, first compound 0.00949 µM", "result": 50.8, "unit": "%"},
      {"measurement": "viability, T/C", "setting": "second compound 0.1 µM, first compound 0.03 µM", "result": 27.9, "unit": "%"},
      {"measurement": "viability, T/C", "setting": "second compound 0.1 µM, first compound 0.0949 µM", "result": 21.6, "unit": "%"},
      {"measurement": "viability, T/C", "setting": "second compound 0.1 µM, first compound 0.3 µM", "result": 13.6, "unit": "%"},
      {"measurement": "viability, T/C", "setting": "second compound 0.316 µM, first compound 0.000949 µM", "result": 112, "unit": "%"},
      {"measurement": "viability, T/C", "setting": "second compound 0.316 µM, first compound 0.003 µM", "result": 100, "unit": "%"},
      {"measurement": "viability, T/C", "setting": "second compound 0.316 µM, first compound 0.00949 µM", "result": 63, "unit": "%"},
      {"measurement": "viability, T/C", "setting": "second compound 0.316 µM, first compound 0.03 µM", "result": 36, "unit": "%"},
      {"measurement": "viability, T/C", "setting": "second compound 0.316 µM, first compound 0.0949 µM", "result": 20.6, "unit": "%"},
      {"measurement": "viability, T/C", "setting": "second compound 0.316 µM, first compound 0.3 µM", "result": 14, "unit": "%"},
      {"measurement": "viability, T/C", "setting": "second compound 1 µM, first compound 0.000949 µM", "result": 120, "unit": "%"},
      {"measurement": "viability, T/C", "setting": "second compound 1 µM, first compound 0.003 µM", "result": 89.6, "unit": "%"},
      {"measurement": "viability, T/C", "setting": "second compound 1 µM, first compound 0.00949 µM", "result": 38.7, "unit": "%"},
      {"measurement": "viability, T/C", "setting": "second compound 1 µM, first compound 0.03 µM", "result": 30.5, "unit": "%"},
      {"measurement": "viability, T/C", "setting": "second compound 1 µM, first compound 0.0949 µM", "result": 20.2, "unit": "%"},
      {"measurement": "viability, T/C", "setting": "second compound 1 µM, first compound 0.3 µM", "result": 15.8, "unit": "%"},
      {"measurement": "viability, T/C", "setting": "second compound 3.16 µM, first compound 0.000949 µM", "result": 89.3, "unit": "%"},
      {"measurement": "viability, T/C", "setting": "second compound 3.16 µM, first compound 0.003 µM", "result": 65.8, "unit": "%"},
      {"measurement": "viability, T/C", "setting": "second compound 3.16 µM, first compound 0.00949 µM", "result": 25.1, "unit": "%"},
      {"measurement": "viability, T/C", "setting": "second compound 3.16 µM, first compound 0.03 µM", "result": 20, "unit": "%"},
      {"measurement": "viability, T/C", "setting": "second compound 3.16 µM, first compound 0.0949 µM", "result": 15.1, "unit": "%"},
      {"measurement": "viability, T/C", "setting": "second compound 3.16 µM, first compound 0.3 µM", "result": 13.2, "unit": "%"},
      {"measurement": "viability, T/C", "setting": "second compound 10 µM, first compound 0.000949 µM", "result": 47.1, "unit": "%"},
      {"measurement": "viability, T/C", "setting": "second compound 10 µM, first compound 0.003 µM", "result": 45, "unit": "%"},
      {"measurement": "viability, T/C", "setting": "second compound 10 µM, first compound 0.00949 µM", "result": 17.5, "unit": "%"},
      {"measurement": "viability, T/C", "setting": "second compound 10 µM, first compound 0.03 µM", "result": 17.6, "unit": "%"},
      {"measurement": "viability, T/C", "setting": "second compound 10 µM, first compound 0.0949 µM", "result": 16.6, "unit": "%"},
      {"measurement": "viability, T/C", "setting": "second compound 10 µM, first compound 0.3 µM", "result": 10.7, "unit": "%"}
    ]}
  ]
}
